Consider 6 molecules from patent US9790189B2, “Disubstituted 5-fluoro pyrimidine derivatives containing a sulfondiimine group” (Bayer Pharma Aktiengesellschaft, priority 2014, dated 2017).

As a reminder, the thermodynamic solubility is solubility found after equilibrating the solid with the medium. A word on the Papp A→B: it is how fast a substance crosses the layer from the apical side. The term Papp B→A denotes how fast a substance crosses the layer from the basolateral side.

Structures are written as SMILES. Values after ≈ are worked out from the molar mass of the structure shown.

The subject of series [1] is Caco-2 cells. Description: Proliferation assay, Caco-2 (crystal violet). The settings on record: Homo sapiens, 96 h; Caco-2, 4 days; read-out: Inhibition of Caco-2 cell proliferation IC50. The class given is cell-based. The protocol:
(§1) Cultivated tumour cells (HeLa, human cervical tumour cells, ATCC CCL-2; NCI-H460, human non-small cell lung carcinoma cells, ATCC HTB-177; A2780, human ovarian carcinoma cells, ECACC #93112519; DU 145, hormone-independent human prostate carcinoma cells, ATCC HTB-81; HeLa-MaTu-ADR, multidrug-resistant human cervical carcinoma cells, EPO-GmbH Berlin; Caco-2, human colorectal carcinoma cells, ATCC HTB-37; B16F10, mouse melanoma cells, ATCC CRL-6475) were plated at a density of 5,000 cells/well (DU145, HeLa-MaTu-ADR), 3,000 cells/well (NCI-H460, HeLa), 2,500 cells/well (A2780), 1,500 cells/well (Caco-2), or 1,000 cells/well (B16F10) in a 96-well multititer plate in 200 μL of their respective growth medium supplemented 10% fetal calf serum. After 24 hours, the cells of one plate (zero-point plate) were stained with crystal violet (see below), while the medium of the other plates was replaced by fresh culture medium (200 μl), to which the test substances were added in various concentrations (0 μM, as well as in the range of 0.001-10 μM; the final concentration of the solvent dimethyl sulfoxide was 0.5%). The cells were incubated for 4 days in the presence of test substances. Cell proliferation was determined by staining the cells with crystal violet: the cells were fixed by adding 20 μl/measuring point of an 11% glutaric aldehyde solution for 15 minutes at room temperature. After three washing cycles of the fixed cells with water, the plates were dried at room temperature. The cells were stained by adding 100 μl/measuring point of a 0.1% crystal violet solution (pH 3.0). After three washing cycles of the stained cells with water, the plates were dried at room temperature. The dye was dissolved by adding 100 μl/measuring point of a 10% acetic acid solution. The extinction was determined by photometry at a wavelength of 595 nm. The change of cell number, in percent, was calculated by normalization of the measured values to the extinction values of the zero-point plate (=0%) and the extinction of the untreated (0 μm) cells (=100%).

For series [2], the system named is NCI-H460 cells. The series is described as follows: Proliferation assay, NCI-H460 (crystal violet). The class given is cell-based. The note with it: Homo sapiens, 96 h; NCI-H460, 4 days; read-out: Inhibition of NCI-H460 cell proliferation IC50. The protocol: as §1
In series [3] the test system is A2780 cells. The series is described as follows: Proliferation assay, A2780 (crystal violet). The note with it: Homo sapiens, 96 h; A2780, 4 days; read-out: Inhibition of A2780 cell proliferation IC50. The class given is cell-based. The protocol: as §1
For series [4], the system named is B16F10 cells. Description: Proliferation assay, B16F10 (crystal violet). The series is classed as cell-based. The settings on record: Mus musculus, B16-F10, 96 h; B16F10, 4 days; read-out: Inhibition of B16F10 cell proliferation IC50. The protocol:
as §1

For series [5], the target named is T1, CDK2/CycE (Homo sapiens, UniProt P24941). Description: CDK2/CycE high ATP kinase assay (TR-FRET, Method 2b). (In general: In TR-FRET formats the signal depends on donor and acceptor labels being close together.)
Series [6] relates to HeLa-MaTu-ADR cells. Description: Proliferation assay, HeLa-MaTu-ADR (crystal violet). The series is classed as cell-based. The settings on record: Homo sapiens, 96 h, 4 days, read-out: Inhibition of HeLa-MaTu-ADR cell proliferation IC50. The procedure:
as §1

The test system of series [7] is HeLa cells. Description: Proliferation assay, HeLa (crystal violet). The note with it: Homo sapiens, 96 h, 4 days, read-out: Inhibition of HeLa cell proliferation IC50. The series is classed as cell-based. The protocol:
as §1

The nature of series [8]: Equilibrium shake flask solubility, high throughput from DMSO solution (Method 4a). The settings on record: phosphate buffer pH 6.5 with 1% DMSO, aqueous buffer, phosphate buffer pH 6.5, 24 hrs, room temperature. The series is classed as physicochemical. The text has this:
4. Equilibrium Shake Flask Solubility Assays:
4a) High Throughput Determination of Aqueous Drug Solubility (100 mmolar in DMSO)
The high throughput screening method to determine aqueous drug solubility is based on:
Thomas Onofrey and Greg Kazan, Performance and correlation of a 96-well high throughput screening method to determine aqueous drug solubility, http://www.millipore.com/publications.nsf/a73664f9f981af8c852569b9005b4eee/e565516fb76e7435852 56da30052db77/$FILE/AN1731EN00.pdf
The assay was run in a 96-well plate format. Each well was filled with an individual compound.
All pipetting steps were performed using a robot platform.
100 μl of a 10 mmolar solution of drug in DMSO were concentrated by vacuum centrifugation and resolved in 10 μl DMSO. 990 μl phosphate buffer pH 6.5 were added. The content of DMSO amounts to 1%. The multititer plate was put on a shaker and mixed for 24 hrs at room temperature. 150 μl of the suspension were transferred to a filtration plate. After filtration using a vacuum manifold the filtrate was diluted 1:400 and 1:8000. A second microtiter plate with 20 μl of a 10 mM solution of drug in DMSO served for calibration. Two concentrations (0.005 μM and 0.0025 μM) were prepared by dilution in DMSO/water 1:1 and used for calibration. Filtrate and calibration plates were quantified by HPLC-MS/MS.
Preparation of 0.1 m Phosphate Buffer pH 6.5:
61.86 g NaCl and 39.54 mg KH2PO4 were solved in water and filled up to […]. The mixture was diluted 1:10 with water and the pH adjusted to 6.5 by NaOH.
Materials: • Millipore MultiScreenHTS-HV Plate 0.45 μm
Chromatographic conditions were as follows: • HPLC column: Ascentis Express C18 2.7 μm 4.6×30 mm • Injection volume: 1 μl • Flow: 1.5 ml/min • Mobile phase: acidic gradient • A: Water/0.05% HCOOH • B: Acetonitrile/0.05% HCOOH • 0 min→95% A 5% B • 0.75 min→5% A 95% B • 2.75 min→5% A 95% B • 2.76 min→95% A 5% B • 3 min→95% A 5% B
The areas of sample- and calibration injections were determined by using mass spectromety software (AB SCIEX: Discovery Quant 2.1.3. and Analyst 1.6.1). The calculation of the solubility value (in mg/l) was executed by an inhouse developed Excel macro.

The target of series [9] is T1, CDK2/CycE. The series is described as follows: CDK2/CycE kinase assay (TR-FRET, Method 2a).
Series [10] relates to DU145 cells. Description: Proliferation assay, DU145 (crystal violet). The series is classed as cell-based. The settings on record: Homo sapiens, DU-145, 96 h; DU145, 4 days; read-out: Inhibition of DU145 cell proliferation IC50. The procedure: as §1
Series [11] in a line: Caco-2 permeation assay (Method 5). The series is classed as in vitro ADME. The note with it: human, pH 7.2, Caco-2, 2 μM test compound, 2 h; for Papp A→B at 2 h, 2 µM: read-out: Papp A−B (Mari); for Papp B→A at 2 h, 2 µM: read-out: Papp B−A (Mari). Background: Passage across Caco-2 layers is used to estimate intestinal permeability.
Procedure: Cells were maintained at 37° C. in a humidified 5% CO2 atmosphere. Medium was changed every 2-3 day. Before running the permeation assay, the culture medium was replaced by a FCS-free hepes-carbonate transport buffer (pH 7.2). For assessment of monolayer integrity the transepithelial electrical resistance (TEER) was measured. Test compounds were predissolved in DMSO and added either to the apical or basolateral compartment in final concentration of 2 μM in transport buffer. Before and after 2 h incubation at 37° C. samples were taken from both compartments. Analysis of compound content was done after precipitation with methanol by LC/MS/MS analysis. Permeability (Papp) was calculated in the apical to basolateral (A→B) and basolateral to apical (B→A) directions. […] The efflux ratio basolateral (B) to apical (A) was calculated by dividing the Papp B−A by the Papp A−B. In addition the compound recovery was calculated.
Series [12] has as its system MOLM-13 cells. The series is described as follows: Proliferation assay, MOLM-13 (Cell Titre-Glo). The series is classed as cell-based. The note with it: Homo sapiens; MOLM-13, 72-hour exposure; read-out: Inhibition of MOLM-13 cell proliferation IC50. The protocol: Non-adherent MOLM-13 human acute myeloid leukemia cells (DSMZ ACC 554) were seeded at a density of 5,000 cells/well in a 96-well multititer plate in 100 μL of growth medium supplemented 10% fetal calf serum. After 24 hours, cell viability of one plate (zero-point plate) was determined with the Cell Titre-Glo Luminescent Cell Viability Assay (Promega), while 50 μL of test compound containing medium was added to the wells of the other plates (final concentrations in the range of 0.001-10 μM and DMSO controls; the final concentration of the solvent dimethyl sulfoxide was 0.5%). Cell viability was assessed after 72-hour exposure with the Cell Titre-Glo Luminescent Cell Viability Assay (Promega).

`CN=S(C)(=N)Cc1cc(F)cc(Nc2ncc(F)c(-c3ccc(F)cc3OC)n2)c1` (racemic) [Example 2, (rac)-N-{3-[(N,S-Dimethylsulfonodiimidoyl)methyl]-5-fluorophenyl}-5-fluoro-4-(4-fluoro-2-methoxyphenyl)pyrimidin-2-amine]: the IC50 in series [1] was 849 nM; in series [2], 968 nM; in series [3] it was 333 nM; in [4], 1120 nM; in series [5], 13000 nM; in series [6] it was 793 nM. Moreover, the IC50 in series [7] amounted to 412 nM; in [9], 1300 nM; in [10], 636 nM. The solubility (thermodynamic) at 24 h in series [8] worked out at 97 µg/mL (≈ 223 µM).
As to `COc1cc(F)ccc1-c1nc(Nc2cc(F)cc(CS(C)(=N)=NCCCO)c2)ncc1F` (racemic) [Example 6, (rac)-3-{[(3-Fluoro-5-{[5-fluoro-4-(4-fluoro-2-methoxyphenyl)pyrimidin-2-yl]amino}benzyl)(imino)methyl-λ^6-sulfanylidene]amino}propan-1-ol], the values for the IC50 in [5], in series [7] and in series [9] were 19800 nM, 507 nM and 970 nM, respectively. Also, in series [8], the solubility (thermodynamic) at 24 h came to 259 µg/mL (≈ 540 µM).
Take `COc1cc(F)ccc1-c1nc(Nc2cc(CS(C)(=N)=N)cc(S(F)(F)(F)(F)F)c2)ncc1F` [Example 8, 5-Fluoro-4-(4-fluoro-2-methoxyphenyl)-N-{3-[(S-methylsulfonodiimidoyl)methyl]-5-(pentafluoro-λ^6-sulfanyl)phenyl}pyrimidin-2-amine]: the IC50 in series [1] is 144 nM; in series [2], 149 nM; in series [4], 237 nM; in series [5], 2990 nM; in series [6], 194 nM; in series [7], 104 nM. Besides, the IC50 worked out at 36 nM in series [12], 400 nM in series [9] and 130 nM in [10]. Besides, the Papp A→B at 2 h, 2 µM in [11] was found to be 3.33 ×10⁻⁶ cm/s. The Papp B→A at 2 h, 2 µM in [11] is 5.19 ×10⁻⁶ cm/s. Besides, the thermodynamic solubility at 24 h in [8] is 2.2 µg/mL (≈ 4.15 µM).
In the case of `COc1cc(F)ccc1-c1nc(Nc2cc(F)cc(CS(C)(=N)=Nc3ccccc3)c2)ncc1F` (racemic) [Example 3, (rac)-5-Fluoro-4-(4-fluoro-2-methoxyphenyl)-N-{3-fluoro-5-[(S-methyl-N-phenylsulfonodiimidoyl)methyl]phenyl}pyrimidin-2-amine], the IC50 worked out at 1000 nM in series [1]; 1090 nM in series [2]; 548 nM in series [3]; 1270 nM in series [4]; 863 nM in [6]; 991 nM in series [7]. For the same molecule, the IC50 in series [9] was found to be 1400 nM; in series [10], 1050 nM. Besides, the solubility (thermodynamic) at 24 h in series [8] stood at 1.4 µg/mL (≈ 2.81 µM).
On to `C#CCN=S(C)(=N)Cc1cc(F)cc(Nc2ncc(F)c(-c3ccc(F)cc3OC)n2)c1` (racemic) [Example 4, (rac)-5-Fluoro-4-(4-fluoro-2-methoxyphenyl)-N-(3-fluoro-5-{[S-methyl-N-(prop-2-yn-1-yl)sulfonodiimidoyl]methyl}phenyl)pyrimidin-2-amine], for which the IC50 worked out at 847 nM in [1]; 935 nM in [2]; 355 nM in [3]; 1130 nM in series [4]; 4290 nM in series [5]; 696 nM in [6]. The results for the IC50 in [7], in series [9] and in series [10] were 535 nM, 580 nM and 581 nM, respectively.
With `COc1cc(F)ccc1-c1nc(Nc2cc(F)cc(CS(C)(=N)=NC#N)c2)ncc1F` (racemic) [Example 5, (rac)-[(3-Fluoro-5-{[5-fluoro-4-(4-fluoro-2-methoxyphenyl)pyrimidin-2-yl]amino}benzyl)(imino)methyl-λ^6-sulfanylidene]cyanamide], the IC50 came to 94 nM in series [1]; 193 nM in series [2]; 35 nM in [3]; 122 nM in series [4]; 1470 nM in series [5]; 80 nM in series [6]. For the same molecule, the IC50 in series [7] turned out to be 73 nM; in series [9] it was 190 nM; in series [10] it was 42 nM. Besides, the Papp A→B at 2 h, 2 µM in series [11] was 2.88 ×10⁻⁶ cm/s. Also, in [11], the Papp B→A at 2 h, 2 µM came out at 19.9 ×10⁻⁶ cm/s.
